# Test results as given in patent US20080220056A1, “Treatment for liver disease” (UNIVERSITY OF SOUTHAMPTON, priority 2002, published 2008).
# Experiments:
# [1] = system: rat hepatic stellate cells; test: Morphology and detachment of culture-activated rat hepatic stellate cells (light microscopy); type: cell-based
# Source text: Rat hepatic stellate cells (HSCs) were isolated by pronase/collagenase perfusion and purified by isopycnic density centrifugation in Opti-prep™ (Nycomed, Amersham, England) and elutriation essentially as previously described (Bahr et al., Hepatology (1999) 29:839-848). Human hepatic stellate cells were isolated from discarded resected liver via a similar protocol (Trim et al., J. Biol. Chem., (2000) 275:6657-6663). The use of human liver tissue for scientific investigation was approved by the UK South and West Local Research Ethics Committee and was subject to patient consent.
# It has been shown recently that liver myofibroblasts may contribute to liver fibrogenesis and that liver myofibroblasts may have the potential to contaminate passaged hepatic stellate cell cultures (Knittel et al., Gastronenterology, (1999) 117:1205-1221). In this study, only primary cultures of hepatic stellate cells were used, which were desmin and glial fibrillary acid protein positive (markers shown to be expressed in hepatic stellate cells, but not liver myofibroblasts—Knittel et al., supra).
# Cells were treated with gliotoxin dissolved in DMSO vehicle (added to medium from a 2000-fold molar concentrated stock). Control cells received DMSO vehicle only (i.e., 0.05% vol/vol). All other additions to culture medium were made from concentrated stocks dissolved in DMSO or by direct addition to culture medium. Protein contents of wells were determined using the Lowry assay (Lowry et al., J. Biol. Chem., (1951)193: 265-275).
# Culture activated rat (14 day) and human (24 day) hepatic stellate cells were treated with DMSO solvent control or 1.5 μMol/L gliotoxin. […] Hepatic stellate cells changed from a flattened fibroblastic phenotype with distinct cell-cell interfaces to a substratum detached, rounded, and blebbed morphology.
# [2] = system: NF-kB DNA binding activity; test: Electromobility shift assay for NF-kB DNA binding activity in rat hepatic stellate cells; type: cell-based; details: activated rat HSC
# Protocol: Crude high salt extractable nuclear protein was prepared from activated hepatic stellate cells for analysis of NF-kB DNA binding activity essentially as described (Elsharkawy et al., supra), aliquoted and stored at −80° C. until required. Extract protein concentrations were determined using the Lowry colorimetric assay (Lowry et al., supra) with bovine serum albumin as standard. A double stranded 5′ end labeled radiolabeled oligonucleotide [sense 5′-[…]-[…] (SEQ ID NO:1)] containing a consensus NF-kB DNA binding site as underlined (Baldwin et al., Annu. Rev. Immunol., (1996) 14:649-681) was used to determine NFkB DNA binding activity in crude nuclear extracts (Elsharkawy et al., supra).
# The effect of gliotoxin on NF-kB activity in hepatic stellate cells was investigated. Culture-activated (14-day) rat hepatic stellate cells were incubated in the presence or absence of 10 ng/mL TNF-α fifteen minutes after addition of:
# After a further 30 minutes, and before any significant morphologic changes, cells were washed with ice-cooled PBS, nuclear extracts prepared, and NF-kB DNA binding activity assessed by gel shift analysis. […] Each lane contained […] of protein and the results were the same for at least three separate experiments.
# [3] = system: rat hepatocytes; test: DNA laddering in rat hepatocytes; type: cell-based; details: four hours; 50 μmol/L gliotoxin, 200 μmol/L chlorpromazine, 200 μmol/L methapyrilene, 10 ng/mL TNF-α with cycloheximide
# Protocol: Hepatic stellate cells cultured in 35-mm diameter dishes (Greiner) were harvested, pelleted by centrifugation and DNA fragmentation determined as outlined elsewhere (Elsharkawy et al., Hepatology (1999) 30:761-769). Propidium Iodide Flow-Activated Cell Sorting Analysis Detached cells were pelleted by centrifugation, washed in PBS, and resuspended in HYPO buffer (0.1% wt/vol) Na3Citrate and 0.1% (wt/vol) Triton™ X-100 containing […] propidium iodide and incubated for 1 hour. The cells were then analyzed by fluorescence-activated cell sorter (FACS) with a Becton Dickinson (San Jose, Calif.) FACScan instrument using a 488 nm excitation wavelength with a band pass filter set at 530 nm. Attached cells were scraped in HYPO buffer after washing cells with PBS.
# DNA laddering was also used to compare the effect of gliotoxin, chlorpromazine, methapyrilene and also the combination of TNF-α with cycloheximide on hepatocytes and hepatic stellate cells.
# [4] = system: hepatic stellate cells; test: TUNEL staining of cycloheximide-treated hepatic stellate cells; type: cell-based; details: 50 μM cycloheximide 18 h; TIMP-1 100 ng/ml
# Protocol: Hepatic stellate cells were cultured on glass chamber slides and then exposed to 50 μM cycloheximide for 18 h with and without TIMP-1 (100 ng/ml). Slides were then stained for DNA fragmentation characteristic of apoptosis by the TUNEL reaction as previously described (Iredale et al., J. Clin. Invest., (1998) 102, 538-549) with the modifications recently described to reduce false positively (Stahelin et al., Mol. Pathol., (1998) 51, 204-208). Each slide was then analyzed by a blinded observer who counted the number of TUNEL-positive apoptotic figures and the TUNEL-negative cells over 10 high power fields for each condition.
# A further pathognomonic feature of apoptosis is the fragmentation of DNA into oligonucleosomal lengths (Evan et al., Cell (1992) 69: 119-128). Fragmented DNA can be identified by the TUNEL technique, which can therefore be used to further quantify the apoptotic response of hepatic stellate cells in the presence and absence of cycloheximide. To assess DNA fragmentation activated hepatic stellate cells were therefore induced to undergo apoptosis by cycloheximide treatment in the presence and absence of TIMP-1 and the number of TUNEL positive cells assessed. […] As a control cells which were treated with serum alone were analyzed. […]
# [5] = target: T1, recombinant human caspase-3 (Homo sapiens, UniProt P42574); test: Direct effect on recombinant caspase-3; type: biochemical; details: TIMP-1 285-2850 ng/ml, 1 hour preincubation
# T1 construct: purchased Calbiochem
# T1 sequence (P42574 29-175 limits assumed): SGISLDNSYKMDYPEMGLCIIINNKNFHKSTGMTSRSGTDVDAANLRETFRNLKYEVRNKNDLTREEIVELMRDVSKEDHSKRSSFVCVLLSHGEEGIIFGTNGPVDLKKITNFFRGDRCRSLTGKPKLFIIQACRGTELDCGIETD
# T1 sequence (P42574 176-277 limits assumed): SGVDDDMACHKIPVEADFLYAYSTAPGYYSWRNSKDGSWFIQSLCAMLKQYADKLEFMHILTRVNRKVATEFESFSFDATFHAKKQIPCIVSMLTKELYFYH
# Protocol: Apoptosis was quantified by a colorimetric assay for caspase-3 activity (Promega) according to the manufacturer's instructions.
# To exclude a direct effect of TIMP-1 on caspase-3 activity, recombinant human caspase-3 (Calbiochem) was incubated with TIMP-1 in varying concentrations (285-2850 ng/ml) for 1 hour before caspase-3 substrate was added to the reaction.
Compound,"detachment from culture dish substratum ([1]; 1.5 μMol/L gliotoxin, within four hours)","morphologic alterations ([1]; culture activated (14 day) rat HSC, 1.5 μmol/L)","TNF-α-inducible NF-kB DNA binding activity ([2]; 10 ng/mL TNF-α, same concentrations as for constitutive activity)","constitutive NF-kB DNA binding activity ([2]; gliotoxin 1.5 μmol/L, N-acetyl cysteine 5 mM, calpain inhibitor 1 50 μM, dexamethasone 0.5 μm, pentoxyfilline 3.6 mM)",cleavage of hepatocyte DNA to a nucleosomal ladder [3],cells containing fragmented DNA (TUNEL) [4],direct effect on caspase-3 activity [5]
CN1C(=O)[C@]23CC4=CC=C[C@H](O)[C@H]4N2C(=O)[C@@]1(CO)SS3 [gliotoxin],a majority of the hepatic stellate cells had detached,striking morphologic alterations within one hour,inhibits TNF-α-inducible NF-kB DNA binding activity,does not have a marked inhibitory effect,only hepatocytes treated with TNF-α and cycloheximide cleaved their DNA to a nucleosomal ladder,,
TIMP-1: recombinant tissue inhibitor of matrix metalloproteases 1 (Biogenesis),,,,,,significantly reduced numbers of cells containing fragmented DNA,did not reduce caspase-3 activity directly
